pIC50: −log10 of the molar value.
What was measured:
[1] = biological target: T1, IRAK4 (His-TEV-IRAK4) (Homo sapiens, UniProt Q9NWZ3); assay: IRAK4 enzymatic assay; assay type: biochemical; details: human recombinant His-TEV-IRAK4, ATP 2 μM, STK1-biotin peptide 300 nM, 3 hours at 30° C., FlashPlate
T1 construct: His (N); TEV cleavage site (N)
T1 sequence (Q9NWZ3 1-460): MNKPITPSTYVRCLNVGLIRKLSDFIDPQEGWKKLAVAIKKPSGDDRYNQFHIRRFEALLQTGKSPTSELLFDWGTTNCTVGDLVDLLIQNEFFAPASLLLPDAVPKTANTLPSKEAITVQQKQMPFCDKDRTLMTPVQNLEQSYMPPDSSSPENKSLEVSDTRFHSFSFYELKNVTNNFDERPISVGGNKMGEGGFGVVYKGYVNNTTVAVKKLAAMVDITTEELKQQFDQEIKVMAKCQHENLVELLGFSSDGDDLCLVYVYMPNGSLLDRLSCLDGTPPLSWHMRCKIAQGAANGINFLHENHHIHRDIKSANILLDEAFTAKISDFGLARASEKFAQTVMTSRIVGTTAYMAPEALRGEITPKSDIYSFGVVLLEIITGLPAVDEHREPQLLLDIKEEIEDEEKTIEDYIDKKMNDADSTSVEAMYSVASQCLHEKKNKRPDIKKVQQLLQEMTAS
Method: IRAK4 Enzymatic Assay IRAK4 is a human purified recombinant enzyme (His-TEV-[…] (194-712). IRAK4 hydrolyses ATP, autophosphorylates and phosphorylates a Serine/Threonine generic peptidic substrate (STK: 61 ST1BLC from CisBio International based in Bagnols/Cèze FR). Measurement of IRAK-4 inhibition was performed in streptavidin coated 384 well FlashPlate (PerkinElmer #SM[…]). His-TEV-IRAK4 (20 ng/well), ATP (2 μM, [^33P]ATP 0.25 μCi/well), STK1-biotin peptide (300 nM) and compounds in DMSO (range of concentrations from 20 μM to 1 nM) or controls (2% DMSO) were incubated for 3 hours at 30° C. in assay buffer: Hepes pH7.0 50 mM, Fatty acid-free BSA 0.1%, Dithiothreitol DTT 2 mM, MgCl2 10 mM, EGTA 0.5 mM, Tween-20 0.01%, MnCl2 5 mM. Kinase reaction was stopped by addition of EDTA. Supernatant was discarded, plates were washed three times with 150 mM NaCl and radioactivity was then measured in a Microbeta Trilux reader.

[2] = system: TLR7 induced IL-6 secretion in human PBMC's; assay: TLR7 induced IL-6 in human PBMC's; assay type: cell-based; details: human PBMC, TLR7 specific ligand 2 uM overnight, IL-6 Alpha LISA; read-out: TLR7 induced IL-6 secretion in hPBMC's (IC50)
Method: TLR7 Induced IL-6 in Human PBMC's Human PBMC assay was used as one of the functional assays to monitor the activity of IRAK1 and IRAK4 small molecule inhibitors on TLR7 induced IL-6 secretion in human mononuclear cells (PBMC's). Human PBMCs were prepared from buffy coats (whole blood enriched with leukocytes and platelets) obtained from healthy volunteers used either fresh or frozen are plated in assay media (RPMI+2% P/S/L-glu+10% HI-FBS) and pre-treated with compounds in DMSO/media (range of concentrations from 25 uM to 0.4 nM) or controls (0.25% DMSO) for 30 minutes at 37° C. in assay media. Following pre-treatment with IRAK1 and IRAK4 inhibitors, PBMC's were stimulated with TLR7 specific ligand (2 uM) overnight (16-18 hrs) at 37° C. After incubation supernatant was transferred to 384 well PE AlphaPlate-384 (6005350) and IL-6 is quantified using Perkin Elmer IL-6 Alpha LISA kit (A[…]). Plates were read on an Envision® plate reader with Alpha Technology®.

[3] = biological target: T2, IRAK1 (His-TEV-IRAK1 (194-712)) (Homo sapiens, UniProt P51617); assay: IRAK1 enzymatic assay; assay type: biochemical; details: human recombinant His-TEV-IRAK1, ATP 1 μM, 3 hours at 30° C., FlashPlate
T2 construct: His-TEV-IRAK1 (194-712); His (N); TEV cleavage site (N)
Method: IRAK1 Enzymatic Assay IRAK1 is a human purified recombinant enzyme (His-TEV-IRAK1 (194-712)). In this assay, IRAK-1 hydrolyses ATP and autophosphorylates. Measurement of IRAK-1 inhibition was performed in streptavidin coated 384 well FlashPlate (PerkinElmer #SM[…]). His-TEV-IRAK-1 (15 ng/well), ATP (1 μ[…]]ATP 0.25 μCi/well) and compounds in DMSO (range of concentrations from 20 μM to 1 nM) or controls (2% DMSO) were incubated for 3 hours at 30° C. in assay buffer: Hepes pH7.0 50 mM, Fatty acid-free BSA 0.1%, Dithiothreitol DTT 2 mM, MgCl2 10 mM, EGTA 0.5 mM, Triton-X-100 0.01%. Kinase reaction was stopped by addition of EDTA. Supernatant was discarded, plates were washed three times with 150 mM NaCl and radioactivity was then measured in a Microbeta Trilux reader.

T2 sequence (P51617 194-712): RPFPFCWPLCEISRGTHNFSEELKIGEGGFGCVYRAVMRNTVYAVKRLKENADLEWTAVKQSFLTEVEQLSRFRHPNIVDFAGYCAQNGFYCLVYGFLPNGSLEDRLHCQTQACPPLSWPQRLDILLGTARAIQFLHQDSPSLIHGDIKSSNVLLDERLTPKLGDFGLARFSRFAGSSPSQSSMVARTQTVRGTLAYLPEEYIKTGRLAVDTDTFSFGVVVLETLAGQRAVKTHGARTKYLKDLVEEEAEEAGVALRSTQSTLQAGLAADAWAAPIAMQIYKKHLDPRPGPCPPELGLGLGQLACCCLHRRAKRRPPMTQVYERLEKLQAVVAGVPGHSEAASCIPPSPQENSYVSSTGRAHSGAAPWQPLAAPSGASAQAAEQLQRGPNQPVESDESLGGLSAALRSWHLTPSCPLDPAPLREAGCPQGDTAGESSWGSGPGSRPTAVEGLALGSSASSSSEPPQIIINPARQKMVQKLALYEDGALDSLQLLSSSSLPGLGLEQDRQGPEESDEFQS

pIC50 [1] | pIC50 [3] | SMILES | pIC50 [2]
> 7.00 | 6.00 to 7.00 | C=CC(=O)N[C@H]1CCC[C@H](n2cc(-c3cnc(-c4cccc(-c5cnn(C)c5)c4)nc3)cn2)C1 [Compound 38, N-[(1S,3S)-3-(4-{2-[3-(1-Methyl-1H-pyrazol-4-yl)-phenyl]-pyrimidin-5-yl}-pyrazol-1-yl)-cyclohexyl]-acrylamide] | 6.00 to 7.00
> 7.00 | 4.70 to 6.00 | Cn1nccc1-c1cccc(-c2ncc(-c3cnn([C@H]4CC[C@]5(CCC(=O)N5C)CC4)c3)cn2)c1 [Compound 43, 1-Methyl-8-((S)-4-{2-[3-(2-methyl-2H-pyrazol-3-yl)-phenyl]-pyrimidin-5-yl}-pyrazol-1-yl)-1-aza-spiro[4.5]decan-2-one] | 4.70 to 6.00
> 7.00 | 6.00 to 7.00 | Cn1cc(-c2cccc(-c3ncc(-c4cnn(C5CCN(C#N)CC5)c4)cn3)c2)cn1 [Compound 45, 4-(4-{2-[3-(1-Methyl-1H-pyrazol-4-yl)-phenyl]-pyrimidin-5-yl}-pyrazol-1-yl)-piperidine-1-carbonitrile] | 6.00 to 7.00
> 7.00 | > 7.00 | Cn1cc(-c2cccc(-c3ncc(-c4cnn(C5CCN(C(=O)/C(C#N)=C\C6CC6)CC5)c4)cn3)c2)cn1 [Compound 46, (Z)-3-Cyclopropyl-2-[4-(4-{2-[3-(1-methyl-1H-pyrazol-4-yl)-phenyl]-pyrimidin-5-yl}-pyrazol-1-yl)-piperidine-1-carbonyl]-acrylonitrile] | 6.00 to 7.00
> 7.00 | > 7.00 | CC#CC(=O)N1CCC(n2cc(-c3cnc(-c4cccc(-c5cnn(C)c5)c4)nc3)cn2)CC1 [Compound 48, 1-[4-(4-{2-[3-(1-Methyl-1H-pyrazol-4-yl)-phenyl]-pyrimidin-5-yl}-pyrazol-1-yl)-piperidin-1-yl]-but-2-yn-1-one] | 4.70 to 6.00

— patent US10314841B2, “Substituted pyrazoles as IRAK inhibitors” (Merck Patent GmbH, priority 2014, dated 2019)
